Experimental data as given in patent US20200079860A1, “METHODS AND COMPOSITIONS FOR TUMOR THERAPY” (MEMORIAL SLOAN KETTERING CANCER CENTER, priority 2015, published 2020).

Tested on: B16F10 cells
Test: mouse bilateral tumor model (B16 murine melanoma); one tumor injected, contralateral non-injected
Type: in vivo, C57BL/6 mice
Experimental: By injecting only one of two tumors throughout the course of the experiment it is possible to separate the effect of the injected tumor from the “abscopal” effect on the distant non-injected tumor. Once treatment begins, tumors are measured twice weekly for at least 90 days.
Also, unless indicated otherwise, controls were treated with isotype control antibodies and vehicle only. Furthermore, unless indicated otherwise, all experiments were performed using the mouse bilateral tumor model described below and summarized in FIG. 2.
The animals used had large tumors in two opposite flanks. One tumor was injected while the second remained non-injected (FIG. 2), allowing separate analysis of the effect at the injected tumor from the so-called ‘abscopal’ effect at the non-injected tumor, in order to understand how this treatment could benefit patients with metastatic cancer. […] C57BL/6 mice were initially implanted with 5×10^5 syngeneic B16F10 cells intra-dermally in bilateral flanks. 8 days post tumor cell implantation, when bilateral tumors measured ˜0.5 cm, intratumoral (IT) treatment with various test agents was initiated together with intraperitoneal (IP) anti-PD-1 mAb. […]
8 days post tumor cell implantation, when bilateral tumors measured ˜0.5 cm, intratumoral (IT) treatment with agents selected to activate APCs was initiated together with intraperitoneal (IP) anti-PD-1 mAb. […]

Row | Molecule | survival on concurrent addition of systemic chemotherapy (added IP to intratumoral MPL, anti-IL10R, and anti-CD40) | substitution for MPL in the treatment (FIG. 35B)
1 | O=C1[O][Pt]2([NH][C@@H]3CCCC[C@H]3[NH]2)[O]C1=O [oxaliplatin] | increased survival | –
2 | PolyIC | – | can be substituted for MPL, albeit possibly with slightly reduced activity
